A short description of this data set: solvent given as SMILES.

For 17 compounds, fluorescence lifetime results are on record in the Deep4Chem optical property database.

As for `CCOC(=O)c1ccc2nc(/N=N/c3ccc(N(CC)CC)cc3)sc2c1`, the fluorescence lifetime reads like this: (in CC#N) 5.59 ns; (in ClCCl) 5.33 ns.
With `COC(=O)c1[nH]c(-c2ccc(OC)cc2)c2nnc3ccc(OC)cc3c12`, the fluorescence lifetime (in ClCCl) was determined as 6.1 ns.
The compound `CCN(CC)c1ccc2cc(/C(Cl)=C/C=C/C(=C(C#N)C#N)c3ccc(N(c4ccccc4)c4ccccc4)cc3)c(=O)oc2c1` came in with a fluorescence lifetime (in CC(C)=O) of 1.51 ns; a fluorescence lifetime (in CCOC(C)=O) of 2.42 ns; a fluorescence lifetime (in CN(C)C=O) of 0.21 ns; a fluorescence lifetime (in CS(C)=O) of 0.18 ns; a fluorescence lifetime (in Cc1ccccc1) of 1.95 ns; a fluorescence lifetime (in ClCCl) of 1.56 ns.
As to `CCC(CC)COC1=CC2=C3c4cc(OCC(CC)CC)c(-c5ccccc5)n4[B-](F)(F)[n+]4nnn(c43)[B-](F)(F)[N+]2=C1c1ccccc1`, the fluorescence lifetime was 1.01 ns (in C1CCOC1) and 0.95 ns (in ClCCl).
For the setting “in c1cc(-c2cccc(-n3c4ccccc4c4ccccc43)c2)cc(-n2c3ccccc3c3ccccc32)c1”, `O=C(c1ccc(N2c3ccccc3Oc3ccccc32)cc1)c1cccc(C(=O)c2ccc(N3c4ccccc4Oc4ccccc43)cc2)c1` came in with a fluorescence lifetime of 24 ns.
`CN(C)c1c2ccccc2cc2ccccc12` had a fluorescence lifetime (in C1CCCCC1) of 4.3 ns; a fluorescence lifetime (in C1CCOC1) of 5.3 ns; a fluorescence lifetime (in C1COCCO1) of 0.8 ns; a fluorescence lifetime (in CC#N) of 3.9 ns; a fluorescence lifetime (in CCO) of 5.1 ns; a fluorescence lifetime (in CN(C)C=O) of 6.5 ns. Moreover, the fluorescence lifetime (in CO) is 4 ns; the fluorescence lifetime (in COCCOC) came out at 4.8 ns; the fluorescence lifetime (in CS(C)=O) is 8.2 ns; the fluorescence lifetime (in O) amounted to 5.7 ns; the fluorescence lifetime (in OCC(O)CO) was 8.9 ns; the fluorescence lifetime (in OCCO) is 7 ns.
Turning to `CCN1C(=CC2=C([O-])C(=Cc3[se]c4ccccc4[n+]3CC)C2=O)[Se]c2ccccc21`, the fluorescence lifetime is, setting by setting: (in CO) 1.17 ns; (in ClC(Cl)Cl) 4.15 ns.
In the case of `Cc1ccc(-c2c3ccc([nH]3)c3nc(c(-c4ccc(C#N)cc4)c4ccc([nH]4)c4ccc([nH]4)c(-c4ccc(C)cc4)c4ccc2o4)C=C3)cc1`, the fluorescence lifetime stood at 5.26 ns (in C1CCOC1), 4.39 ns (in Cc1ccccc1) and 5.94 ns (in c1ccccc1).
The compound `Cc1ccc(-c2ccc(-c3ccc(-c4ccc(-c5ccc(C)cc5)cc4)c(/C(=C(/c4ccccc4)c4cc(-c5ccc(-c6ccc(C)cc6)cc5)ccc4-c4ccc(-c5ccc(C)cc5)cc4)c4ccccc4)c3)cc2)cc1` returned a fluorescence lifetime (in C1CCOC1) of 8.5 ns.
Take `CCN(CC)c1ccc2cc(-c3nc4c5cccc6ccc7cccc(c7c65)c4n3-c3ccc(C(C)(C)C)cc3)c(=O)oc2c1`: under “in ClCCl”, the fluorescence lifetime was determined as 11.4 ns.
Regarding `CN(C)c1ccc(-c2c(/C=C3/C=Cc4ccccc4N3Cc3ccccc3)c(=O)c2=O)cc1`, the fluorescence lifetime (in C1CCCCC1) was determined as 2.19 ns, the fluorescence lifetime (in Cc1ccccc1) came to 2.13 ns and the fluorescence lifetime (in ClCCl) was 0.13 ns.
For the compound `COc1ccc(-c2csc(/C(C#N)=C/c3ccc(Cl)cc3)n2)cc1`, the fluorescence lifetime (in CC#N) stood at 3.61 ns.
With `CC(C)c1cc(C(C)C)c(B2c3ccccc3Oc3cc(-n4c5ccccc5c5c6c(c7ccccc7n6-c6ccccc6)c6c(c7ccccc7n6-c6ccccc6)c54)ccc32)c(C(C)C)c1`, the fluorescence lifetime worked out at 23.1 ns (in CC(C)c1cc(C(C)C)c(-c2ccc(-n3c4ccccc4n4c5ccccc5nc34)nc2)c(C(C)C)c1) and 24.7 ns (in O=P(c1ccccc1)(c1ccccc1)c1ccccc1Oc1ccccc1P(=O)(c1ccccc1)c1ccccc1).
Compound `CC(C)(C)c1ccc2c(c1)c1cc(C(C)(C)C)ccc1n2-c1ccc(C(=CC#N)c2ccc(-n3c4ccc(C(C)(C)C)cc4c4cc(C(C)(C)C)ccc43)cc2)cc1` came in with a fluorescence lifetime (in Cc1ccccc1) of 3.86 ns.
`COc1cc2c3cc(OC)c(OC)cc3c3cc4c(C)cc(=O)oc4cc3c2cc1OC` yielded a fluorescence lifetime (in ClC(Cl)Cl) of 4.6 ns.
Where the note is “in CC#N”, `O=c1oc2ccccc2cc1/C=C/c1ccc([N+](=O)[O-])cc1` showed a fluorescence lifetime of 0.08 ns.
Under “in ClCCl”, `CC(C)(C)c1ccc2c(c1)sc1[n+]2[B-](F)(F)n2c(c3cccc4cccc2c43)=C1C#N` showed a fluorescence lifetime of 6 ns.
